Laboratory results as given in patent US12377110B2, “Fospropofol methods and compositions” (Epalex Corporation, priority 2019, dated 2025).

Assays:
[1] = Study No. 15-2 (non-GLP): MTD and 7-day once daily oral gavage toxicity of fospropofol disodium; type: in vivo, Beagle dogs; conditions: dog, in vivo, Beagle dogs
Beagle dogs [2] = experiment: as above; type: in vivo
[3] = Study No. 15-4 (GLP): 14-day once daily oral gavage toxicity of fospropofol disodium; type: in vivo, Beagle dogs; conditions: both sexes, dog, in vivo; 14 days once daily oral gavage, Beagle dogs
Method: (§1) The purpose of Study No. 15-4 (GLP) was to determine the potential toxicity of fospropofol in Beagle dogs when administered once daily by oral gavage for 14 days. […] Because the treatment-related clinical observations (consistent with the expected transient sedative actions of fospropofol) and effects on hematology and clinical chemistry parameters were considered nonadverse, the NOAEL was determined to be 160 mg/kg/day (3200 mg/m^2/day).
(§2) As in the rat, CNS-related clinical signs were observed which were consistent with the established pharmacodynamic effects of fospropofol. […] The NOAEL was determined to be 160 mg/kg/day (3200 mg/m^2/d) in male and female Beagle dogs.

Beagle dogs [4] = experiment: as above; type: in vivo
Method: as §1, §2

[5] = tested on: moderate to severe migraine headache; experiment: Study A17: clinical course (headache pain, most bothersome symptom, associated migraine symptoms); type: in vivo, human; conditions: 800 mg oral
Method: The study is planned to complete approximately 85 subjects. • Enrolled subjects will be asked to come to the study site for treatment when they experience a qualifying migraine headache. Dosing must occur within 4 hours after onset of the migraine symptoms. If treatment at the study site is not feasible or practicable within 4 hours after onset of migraine symptoms, subjects should use their usual medication for that headache and attempt to visit the clinic for treatment as soon as possible (within 4 hours) after onset of their next migraine headache. Dosing must occur within 60 days after enrollment (see Post-enrollment Period below). • At clinic check-in for treatment, study personnel will verify eligibility for closing regarding the criteria for a qualifying headache and adherence to post-enrollment study restrictions (see Eligibility for Dosing below). • Treatment will consist of a single oral dose of fospropofol disodium. […] Because the prevalence of migraine headaches is higher in women than in men, efforts will be made to enroll at least 50% women. • Subjects must meet the general inclusion and exclusion criteria listed below (Inclusion Criteria and Exclusion Criteria) at screening to be enrolled in the study. To be eligible for fospropofol disodium treatment after onset of a migraine headache, enrolled subjects must meet criteria specific to the presenting headache at clinic check-in (see Qualifying Headache below) and adhere to study restrictions specific to the period between enrollment and clinic check-in (see Post-enrollment Restrictions below). • Inclusion Criteria Subjects must meet all of the following criteria at screening to be enrolled in the study: • 1. Written informed consent approved by the Institutional Review Board (IRB) given before any study-related procedures are performed • 2. […] Complete abstinence alone can be used as a method of contraception. • 6. […] Able to comprehend the nature of the study, capable of giving written informed consent, and able to communicate effectively with clinic staff (as assessed by the investigator) • 8. Available to volunteer for the entire study duration and willing to adhere to all protocol requirements, including the post-enrollment restrictions (see Post-enrollment Restrictions below) • 9. Agrees not to post any information related to the study on any website or social media site (e.g., Facebook, Twitter, LinkedIn, Google+, etc.) until the entire trial has been completed • 10. Willing to forgo rescue medicine for at least 2 hours after initiation of treatment with study drug (see In-Clinic Rescue Medicine) • Exclusion Criteria Subjects to whom any of the following criteria apply at screening will be excluded: • 1. History of hemiplegic migraine (at any time in the past). • 2. History of headaches of any type occurring on ≥15 days/month during any of the 3 months prior to screening. • 3.

[6] = 1 hr postdose, No rescue, N = 18
[7] = 2 h postdose, No rescue, N = 18
[8] = 4 h postdose, No rescue, N = 18
[9] = 24 h postdose (D2), No rescue, N = 18
[10] = 24 h postdose (D2), Total, N = 18
[11] = 48 h postdose (D3), Rescue, N = 18
[12] = 48 h postdose (D3), Total, N = 18

CC(C)c1cccc(C(C)C)c1OCOP(=O)([O-])O.[Na+] [fospropofol disodium]
MTD at 7 days [1]: 160 mg/kg/day | MTD (Beagle dogs [2]; Beagle dogs): 3200 mg/m^2/day | Tolerability (Beagle dogs [2]; single fospropofol doses up to 120 mg/kg or 120 and 160 mg/kg/day once daily for 7 days): tolerated at all closes with no mortality or adverse findings | NOAEL at 14 days [3]: 160 mg/kg/day | Tolerability (Beagle dogs [4]; 0, 50, 100, and 160 mg/kg/day for 14 consecutive days): well tolerated at all close levels with no adverse findings | Mortalities (Beagle dogs [4]; 0, 50, 100, and 160 mg/kg/day for 14 days): no mortalities | NOAEL (Beagle dogs [4]; 14 days once daily oral gavage, Beagle dogs): 3200 mg/m^2/day | Histopathology, all tissues including GIT-related (Beagle dogs [4]; up to 160 mg/kg/day): no treatment-related histopathological findings | Body weights, cardiovascular evaluations (ECGs, QTc), ophthalmology, clinical pathology, organ weights (Beagle dogs [4]; up to 160 mg/kg/day for 14 days): no toxicologically significant changes | Sustained MBS-free response: No, % ([5]; 2-24 hours postdose, N = 18): (44.4) % | Sustained MBS-free response: Yes, % ([5]; 2-24 hours postdose, N = 18): (55.6) % | Sustained headache pain freedom: No, % ([5]; 2-24 hours postdose, N = 18): (77.8) % | Sustained headache pain freedom: Yes, % ([5]; 2-24 hours postdose, N = 18): (22.2) % | Sustained headache pain relief: No, % ([5]; 2-24 hours postdose, N = 18): (33.3) % | Sustained headache pain relief: Yes, % ([5]; 2-24 hours postdose, N = 18): (66.7) % | Sustained MBS-free response: No, % ([5]; 2-48 hours postdose, N = 18): (50) % | Sustained MBS-free response: Yes, % ([5]; 2-48 hours postdose, N = 18): (50) % | Sustained headache pain freedom: No, % ([5]; 2-48 hours postdose, N = 18): (83.3) % | Sustained headache pain freedom: Yes, % ([5]; 2-48 hours postdose, N = 18): (16.7) % | Sustained headache pain relief: No, % ([5]; 2-48 hours postdose, N = 18): (38.9) % | Sustained headache pain relief: Yes, % ([5]; 2-48 hours postdose, N = 18): (61.1) % | Most Bothersome Symptom: MBS free, % [5, 6]: (38.9) % | Most Bothersome Symptom: MBS present, % [5, 6]: (61.1) % | Severity of headache pain: Mild pain, % [5, 6]: (50.0) % | Severity of headache pain: Moderate pain, % [5, 6]: (33.3) % | Severity of headache pain: Pain free, % [5, 6]: (5.6) % | Severity of headache pain: Severe pain, % [5, 6]: (11.1) % | Most Bothersome Symptom: MBS free, % ([5]; 1 hr postdose, Total, N = 18): (38.9) % | Most Bothersome Symptom: MBS present, % ([5]; 1 hr postdose, Total, N = 18): (61.1) % | Severity of headache pain: Mild pain, % ([5]; 1 hr postdose, Total, N = 18): (50.0) % | Severity of headache pain: Moderate pain, % ([5]; 1 hr postdose, Total, N = 18): (33.3) % | Severity of headache pain: Pain free, % ([5]; 1 hr postdose, Total, N = 18): (5.6) % | Severity of headache pain: Severe pain, % ([5]; 1 hr postdose, Total, N = 18): (11.1) % | Headache Pain level 1 hr ([5]; 1 hr postdose, individual migraine subjects (N = 12)): Severe and Mild and None and Moderate | Most Bothersome Symptom: MBS free, % [5, 7]: (66.7) % | Severity of headache pain: Mild pain, % [5, 7]: (61.1) % | Severity of headache pain: Moderate pain, % [5, 7]: (16.7) % | Severity of headache pain: Pain free, % [5, 7]: (22.2) % | Most Bothersome Symptom: MBS free, % ([5]; 2 h postdose, Total, N = 18): (66.7) % | Most Bothersome Symptom: MBS present, % ([5]; 2 h postdose, Total, N = 18): (33.3) % | Severity of headache pain: Mild pain, % ([5]; 2 h postdose, Total, N = 18): (61.1) % | Severity of headache pain: Moderate pain, % ([5]; 2 h postdose, Total, N = 18): (16.7) % | Severity of headache pain: Pain free, % ([5]; 2 h postdose, Total, N = 18): (22.2) % | Headache Pain level 2 hr ([5]; 2 hr postdose, individual migraine subjects (N = 12)): Moderate and None and Mild | Most Bothersome Symptom: MBS free, % [5, 8]: (77.8) % | Severity of headache pain: Mild pain, % [5, 8]: (22.2) % | Severity of headache pain: Moderate pain, % [5, 8]: (5.6) % | Severity of headache pain: Pain free, % [5, 8]: (55.6) % | Most Bothersome Symptom: MBS free, % ([5]; 4 h postdose, Rescue, N = 18): (11.1) % | Most Bothersome Symptom: MBS present, % ([5]; 4 h postdose, Rescue, N = 18): (11.1) % | Severity of headache pain: Mild pain, % ([5]; 4 h postdose, Rescue, N = 18): (5.6) % | Severity of headache pain: Pain free, % ([5]; 4 h postdose, Rescue, N = 18): (11.1) % | Most Bothersome Symptom: MBS free, % ([5]; 4 h postdose, Total, N = 18): (88.9) % | Most Bothersome Symptom: MBS present, % ([5]; 4 h postdose, Total, N = 18): (11.1) % | Severity of headache pain: Mild pain, % ([5]; 4 h postdose, Total, N = 18): (27.8) % | Severity of headache pain: Moderate pain, % ([5]; 4 h postdose, Total, N = 18): (5.6) % | Severity of headache pain: Pain free, % ([5]; 4 h postdose, Total, N = 18): (66.7) % | Headache Pain level 4 hr ([5]; 4 hr postdose, individual migraine subjects (N = 12)): Moderate and None and Mild and Mild [b] | Severity of headache pain: Mild pain, % [5, 9]: (16.7) % | Severity of headache pain: Moderate pain, % [5, 9]: (11.1) % | Severity of headache pain: Pain free, % [5, 9]: (72.2) % | Severity of headache pain: Moderate pain, % ([5]; 24 h postdose (D2), Rescue, N = 18): (11.1) % | Severity of headache pain: Mild pain, % [5, 10]: (16.7) % | Severity of headache pain: Moderate pain, % [5, 10]: (22.2) % | Severity of headache pain: Pain free, % [5, 10]: (72.2) % | Most Bothersome Symptom: MBS free, % ([5]; 24 h postdose (Day 2), No rescue, N = 18): (72.2) % | Most Bothersome Symptom: MBS free, % ([5]; 24 h postdose (Day 2), Rescue, N = 18): (11.1) % | Most Bothersome Symptom: MBS free, % ([5]; 24 h postdose (Day 2), Total, N = 18): (83.3) % | Severity of headache pain: Pain free, % ([5]; 48 h postdose (D3), No rescue, N = 18): (83.3) % | Severity of headache pain: Mild pain, % [5, 11]: (11.1) % | Severity of headache pain: Moderate pain, % [5, 11]: (22.2) % | Severity of headache pain: Mild pain, % [5, 12]: (11.1) % | Severity of headache pain: Moderate pain, % [5, 12]: (22.2) % | Severity of headache pain: Pain free, % [5, 12]: (83.3) % | Most Bothersome Symptom: MBS free, % ([5]; 48 h postdose (Day 3), No rescue, N = 18): (66.7) % | Most Bothersome Symptom: MBS free, % ([5]; 48 h postdose (Day 3), Rescue, N = 18): (11.1) % | Most Bothersome Symptom: MBS free, % ([5]; 48 h postdose (Day 3), Total, N = 18): (77.8) % | Most Bothersome Symptom: MBS free, % ([5]; Discharge, No rescue, N = 18): (72.2) % | Severity of headache pain: Mild pain, % ([5]; Discharge, No rescue, N = 18): (11.1) % | Severity of headache pain: Pain free, % ([5]; Discharge, No rescue, N = 18): (66.7) % | Most Bothersome Symptom: MBS free, % ([5]; Discharge, Rescue, N = 18): (16.7) % | Severity of headache pain: Mild pain, % ([5]; Discharge, Rescue, N = 18): (5-6) % | Severity of headache pain: Pain free, % ([5]; Discharge, Rescue, N = 18): (11.1) % | Most Bothersome Symptom: MBS free, % ([5]; Discharge, Total, N = 18): (88.9) % | Severity of headache pain: Mild pain, % ([5]; Discharge, Total, N = 18): (16.7) % | Severity of headache pain: Pain free, % ([5]; Discharge, Total, N = 18): (77.8) % | Freedom from MBS at 2 hours: No, % ([5]; N = 18): (33.3) % | Freedom from MBS at 2 hours: Yes, % ([5]; N = 18): (66.7) % | Freedom from both migraine headache pain and MBS at 2 hours: No, % ([5]; N = 18): (77.8) % | Freedom from both migraine headache pain and MBS at 2 hours: Yes, % ([5]; N = 18): (22.2) % | Freedom from migraine headache pain at 2 hours: No, % ([5]; N = 18): (77.8) % | Freedom from migraine headache pain at 2 hours: Yes, % ([5]; N = 18): (22.2) % | MBS (Y/N) 1 hr ([5]; most bothersome symptom present, 1 hr postdose, individual migraine subjects (N = 12)): Yes and No | MBS (Y/N) 2 hr ([5]; most bothersome symptom present, 2 hr postdose, individual migraine subjects (N = 12)): No and Yes | MBS (Y/N) 4 hr ([5]; most bothersome symptom present, 4 hr postdose, individual migraine subjects (N = 12)): No and Yes and Yes [b]
